Reference: ChEMBL document CHEMBL1157550, “Incorporation of fluorinated phenylalanine generates highly specific inhibitor of proteasome's chymotrypsin-like sites” (J Med Chem, 2010)
Active and inactive are the calls of the source. The calls are words filed in the database; no cut-off is given here.

Columns and labels:
[1] = molecular target: T1, Proteasome Macropain subunit MB1 (Homo sapiens) (UniProt P28074); assay: Displacement of fluorescent labeled MV151 from 26S proteasome beta 5 in human HEK293 cell lysate assessed as residual activity at 100 uM after 1 hr by SDS-PAGE; type: cell-free
T1 sequence (whole entry): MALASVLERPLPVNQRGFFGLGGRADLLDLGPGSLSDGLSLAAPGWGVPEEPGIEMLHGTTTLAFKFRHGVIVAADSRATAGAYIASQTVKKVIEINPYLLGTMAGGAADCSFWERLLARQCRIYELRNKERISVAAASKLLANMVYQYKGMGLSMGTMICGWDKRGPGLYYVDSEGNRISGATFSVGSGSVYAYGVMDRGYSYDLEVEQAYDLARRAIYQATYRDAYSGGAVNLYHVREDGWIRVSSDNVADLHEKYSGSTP

[2] = molecular target: T2, Proteasome component C5 (Homo sapiens) (UniProt P20618); assay: Inhibition of 26S proteasome beta 1 in human HEK293 cell lysate assessed as residual activity at 13.5 uM after 1 hr; type: cell-free
T2 sequence (whole entry): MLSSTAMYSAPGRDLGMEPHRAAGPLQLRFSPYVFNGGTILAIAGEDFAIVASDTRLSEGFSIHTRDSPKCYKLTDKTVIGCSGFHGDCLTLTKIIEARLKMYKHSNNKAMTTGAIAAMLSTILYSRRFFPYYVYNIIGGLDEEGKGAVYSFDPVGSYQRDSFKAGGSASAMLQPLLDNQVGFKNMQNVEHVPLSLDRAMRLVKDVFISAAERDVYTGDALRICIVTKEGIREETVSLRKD

[3] = molecular target: T2, Proteasome component C5 (Homo sapiens); assay: (§1) Inhibition of 26S proteasome beta 1 in human HEK293 cell lysate assessed as residual activity at […] after 1 hr; type: cell-free
[4] = molecular target: T2, Proteasome component C5 (Homo sapiens); assay: Inhibition of 26S proteasome beta 1 in human HEK293 cell lysate assessed as residual activity at 1.5 uM after 1 hr; type: cell-free
[5] = molecular target: T2, Proteasome component C5 (Homo sapiens); assay: Inhibition of 26S proteasome beta 1 in human HEK293 cell lysate assessed as residual activity at 0.5 uM after 1 hr; type: cell-free
[6] = molecular target: T2, Proteasome component C5 (Homo sapiens); assay: Inhibition of 26S proteasome beta 1 in human HEK293 cell lysate assessed as residual activity at 0.167 uM after 1 hr; type: cell-free
[7] = molecular target: T2, Proteasome component C5 (Homo sapiens); assay: as §1; type: cell-free; remark: listed apart in the source
[8] = molecular target: T2, Proteasome component C5 (Homo sapiens); assay: Inhibition of 26S proteasome beta 1 in human HEK293 cell lysate assessed as residual activity at 0.019 uM after 1 hr; type: cell-free
[9] = molecular target: T2, Proteasome component C5 (Homo sapiens); assay: Inhibition of 26S proteasome beta 1 in human HEK293 cell lysate assessed as residual activity at 0.002 uM after 1 hr; type: cell-free
[10] = molecular target: T2, Proteasome component C5 (Homo sapiens); assay: Inhibition of 26S proteasome beta 1 in human HEK293 cell lysate assessed as residual activity at 0.001 uM after 1 hr; type: cell-free
[11] = molecular target: Proteasome Macropain subunit (Homo sapiens) (UniProt P49721); assay: (§2) Inhibition of 26S proteasome beta 2 in human HEK293 cell lysate assessed as residual activity at […] after 1 hr; type: cell-free
[12] = molecular target: Proteasome Macropain subunit (Homo sapiens) (UniProt P49721); assay: Inhibition of 26S proteasome beta 2 in human HEK293 cell lysate assessed as residual activity at 1.5 uM after 1 hr; type: cell-free
[13] = molecular target: Proteasome Macropain subunit (Homo sapiens) (UniProt P49721); assay: Inhibition of 26S proteasome beta 2 in human HEK293 cell lysate assessed as residual activity at 0.5 uM after 1 hr; type: cell-free
[14] = molecular target: Proteasome Macropain subunit (Homo sapiens) (UniProt P49721); assay: Inhibition of 26S proteasome beta 2 in human HEK293 cell lysate assessed as residual activity at 0.167 uM after 1 hr; type: cell-free
[15] = molecular target: Proteasome Macropain subunit (Homo sapiens) (UniProt P49721); assay: as §2; type: cell-free; remark: listed apart in the source
[16] = molecular target: Proteasome Macropain subunit (Homo sapiens) (UniProt P49721); assay: Inhibition of 26S proteasome beta 2 in human HEK293 cell lysate assessed as residual activity at 0.019 uM after 1 hr; type: cell-free
[17] = molecular target: Proteasome Macropain subunit (Homo sapiens) (UniProt P49721); assay: Inhibition of 26S proteasome beta 2 in human HEK293 cell lysate assessed as residual activity at 0.006 uM after 1 hr; type: cell-free
[18] = molecular target: Proteasome Macropain subunit (Homo sapiens) (UniProt P49721); assay: Inhibition of 26S proteasome beta 2 in human HEK293 cell lysate assessed as residual activity at 0.002 uM after 1 hr; type: cell-free
[19] = molecular target: Proteasome Macropain subunit (Homo sapiens) (UniProt P49721); assay: Inhibition of 26S proteasome beta 2 in human HEK293 cell lysate assessed as residual activity at 0.001 uM after 1 hr; type: cell-free
[20] = molecular target: T2, Proteasome component C5 (Homo sapiens); assay: Inhibition of 26S proteasome beta 1 in human HEK293 cell lysate assessed as residual activity at 0.006 uM after 1 hr; type: cell-free
[21] = molecular target: Proteasome Macropain subunit (Homo sapiens) (UniProt P49721); assay: Inhibition of 26S proteasome beta 2 in human HEK293 cell lysate assessed as residual activity at 13.5 uM after 1 hr; type: cell-free
[22] = molecular target: T2, Proteasome component C5 (Homo sapiens); assay: Displacement of fluorescent labeled MV151 from 26S proteasome beta 1 in human HEK293 cell lysate assessed as residual activity at 1 uM after 1 hr by SDS-PAGE; type: cell-free
[23] = molecular target: T2, Proteasome component C5 (Homo sapiens); assay: Displacement of fluorescent labeled MV151 from 26S proteasome beta 1 in human HEK293 cell lysate assessed as residual activity at 100 uM after 1 hr by SDS-PAGE; type: cell-free
[24] = molecular target: Proteasome Macropain subunit (Homo sapiens) (UniProt P49721); assay: Displacement of fluorescent labeled MV151 from 26S proteasome beta 2 in human HEK293 cell lysate assessed as residual activity at 1 uM after 1 hr by SDS-PAGE; type: cell-free
[25] = molecular target: Proteasome Macropain subunit (Homo sapiens) (UniProt P49721); assay: Displacement of fluorescent labeled MV151 from 26S proteasome beta 2 in human HEK293 cell lysate assessed as residual activity at 100 uM after 1 hr by SDS-PAGE; type: cell-free
[26] = molecular target: T1, Proteasome Macropain subunit MB1 (Homo sapiens); assay: Displacement of fluorescent labeled MV151 from 26S proteasome beta 5 in human HEK293 cell lysate assessed as residual activity at 1 uM after 1 hr by SDS-PAGE; type: cell-free
[27] = molecular target: Proteasome subunit beta type-5 (Homo sapiens) (UniProt P28074); assay: Inhibition of 26S proteasome beta 5 in human HEK293 cell lysate assessed as residual activity at […] after 1 hr
[28] = molecular target: Proteasome subunit beta type-5 (Homo sapiens) (UniProt P28074); assay: as above; remark: listed apart in the source
[29] = molecular target: Proteasome subunit beta type-5 (Homo sapiens) (UniProt P28074); assay: Inhibition of 26S proteasome beta 5 in human HEK293 cell lysate assessed as residual activity at 1.5 uM after 1 hr
[30] = molecular target: Proteasome subunit beta type-5 (Homo sapiens) (UniProt P28074); assay: Inhibition of 26S proteasome beta 5 in human HEK293 cell lysate assessed as residual activity at 0.5 uM after 1 hr
[31] = molecular target: Proteasome subunit beta type-5 (Homo sapiens) (UniProt P28074); assay: Inhibition of 26S proteasome beta 5 in human HEK293 cell lysate assessed as residual activity at 13.5 uM after 1 hr
[32] = molecular target: Proteasome subunit beta type-5 (Homo sapiens) (UniProt P28074); assay: Inhibition of 26S proteasome beta 5 in human HEK293 cell lysate assessed as residual activity at 0.167 uM after 1 hr
[33] = molecular target: Proteasome subunit beta type-5 (Homo sapiens) (UniProt P28074); assay: Inhibition of 26S proteasome beta 5 in human HEK293 cell lysate assessed as residual activity at 0.019 uM after 1 hr
[34] = molecular target: Proteasome subunit beta type-5 (Homo sapiens) (UniProt P28074); assay: Inhibition of 26S proteasome beta 5 in human HEK293 cell lysate assessed as residual activity at 0.006 uM after 1 hr
[35] = molecular target: Proteasome subunit beta type-5 (Homo sapiens) (UniProt P28074); assay: Inhibition of 26S proteasome beta 5 in human HEK293 cell lysate assessed as residual activity at 0.002 uM after 1 hr
[36] = molecular target: Proteasome subunit beta type-5 (Homo sapiens) (UniProt P28074); assay: Inhibition of 26S proteasome beta 5 in human HEK293 cell lysate assessed as residual activity at 0.001 uM after 1 hr
[37] = molecular target: T2, Proteasome component C5 (Homo sapiens); assay: Displacement of fluorescent labeled MV151 from 26S proteasome beta 1 in human HEK293 cell lysate assessed as disappearance of band at 0.1 to 1 uM after 1 hr by SDS-PAGE; type: cell-free
[38] = molecular target: T1, Proteasome Macropain subunit MB1 (Homo sapiens); assay: Displacement of fluorescent labeled MV151 from 26S proteasome beta 5 in human HEK293 cell lysate assessed as disappearance of band at 0.1 to 1 uM after 1 hr by SDS-PAGE; type: cell-free

Proteasome Macropain subunit (Homo sapiens), sequence (P49721 whole entry): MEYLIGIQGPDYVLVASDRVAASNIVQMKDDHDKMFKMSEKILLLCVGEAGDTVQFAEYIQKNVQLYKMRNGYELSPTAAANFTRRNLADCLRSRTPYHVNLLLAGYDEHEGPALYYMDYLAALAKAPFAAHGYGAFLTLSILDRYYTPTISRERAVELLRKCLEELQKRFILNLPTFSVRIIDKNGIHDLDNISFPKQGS

SMILES	Activity [1] [%]	Activity [2] [%]	Activity [3] [%]	Activity [4] [%]	Activity [5] [%]	Activity [6] [%]	Activity [7] [%]	Activity [8] [%]	Activity [9] [%]	Activity [10] [%]	Activity [11] [%]	Activity [12] [%]	Activity [13] [%]	Activity [14] [%]	Activity [15] [%]	Activity [21] [%]	Activity [22] [%]	Activity [23] [%]	Activity [25] [%]	Activity [26] [%]	also measured
CC(C)C[C@H](NC(=O)[C@H](Cc1cc(C(F)(F)F)cc(C(F)(F)F)c1)NC(=O)[C@H](Cc1ccccc1)NC(=O)[C@H](Cc1ccccc1)N=[N+]=[N-])C(=O)[C@@]1(C)CO1	2.6	50.3	67.7	82.8	89.9	93.5	103	98.1	102	106	77.1	97.3	99.1	112	111	57.9	156	61	92	45	Activity [16]: 111%; Activity [17]: 105%; Activity [18]: 99.6%; Activity [19]: 106%; Activity [20]: 97.8%; Activity [24]: 4.3%; Activity [27]: 5.2%; Activity [28]: 66.2%; Activity [29]: 9.5%; Activity [30]: 19.7%; Activity [31]: 3%; Activity [32]: 34.9%; Activity [33]: 100%; Activity [34]: 92.2%; Activity [35]: 97%; Activity [36]: 109%
CC(C)C[C@H](NC(=O)[C@H](Cc1ccccc1)NC(=O)[C@H](Cc1c(F)c(F)c(F)c(F)c1F)NC(=O)[C@H](Cc1ccccc1)N=[N+]=[N-])C(=O)[C@@]1(C)CO1	0.83	73.1	102	115	103	89.4	83.2				119	127	118	89.9	98.7	98.4	82.1	87.6	56.9	89.1	Activity [24]: 2.9%; Activity [27]: 8%; Activity [28]: 56.2%; Activity [29]: 14.7%; Activity [30]: 29.7%; Activity [31]: 5.8%; Activity [32]: 48.9%
CC(C)C[C@H](NC(=O)[C@H](Cc1ccccc1)NC(=O)[C@H](Cc1ccccc1)NC(=O)[C@H](Cc1ccccc1)N=[N+]=[N-])C(=O)[C@@]1(C)CO1		58.3	54	69.9	58.4	84.9	104	76.8	100	105	26.1	37	65.8	89	115	10.6	139	7.2	133	4.6	Activity [16]: 82%; Activity [17]: 105%; Activity [18]: 109%; Activity [19]: 106%; Activity [20]: 96.5%
CC(C)C[C@H](NC(=O)[C@H](Cc1cc(C(F)(F)F)cc(C(F)(F)F)c1)NC(=O)[C@H](Cc1cc(C(F)(F)F)cc(C(F)(F)F)c1)NC(=O)[C@H](Cc1ccccc1)N=[N+]=[N-])C(=O)[C@@]1(C)CO1	31																192	100	149	79	Activity [24]: 48%
CC(C)C[C@H](NC(=O)[C@H](Cc1ccccc1)NC(=O)c1cnccn1)B1OC2C[C@@H]3C[C@@H](C3(C)C)[C@]2(C)O1 (some centres undefined)																					Activity [37]: Active; Activity [38]: Active
CC(C)C[C@H](NC(=O)[C@H](Cc1c(F)c(F)c(F)c(F)c1F)NC(=O)c1cnccn1)B1OC2C[C@@H]3C[C@@H](C3(C)C)[C@]2(C)O1 (some centres undefined)		1.3	3.1	12	40.4	68.7	92.1	99.5	96.1	110	118	135	118	121	118	110					Activity [16]: 102%; Activity [17]: 104%; Activity [18]: 99%; Activity [19]: 110%; Activity [20]: 97.5%; Activity [37]: Active; Activity [38]: Active
CC(C)C[C@H](NC(=O)[C@H](Cc1c(F)c(F)c(F)c(F)c1F)NC(=O)[C@H](Cc1c(F)c(F)c(F)c(F)c1F)NC(=O)[C@H](Cc1ccccc1)N=[N+]=[N-])C(=O)[C@@]1(C)CO1	7.4																148	115	43.2	94.9	Activity [24]: 20.4%
CC(C)C[C@H](NC(=O)[C@H](Cc1c(F)c(F)c(F)c(F)c1F)NC(=O)[C@H](Cc1ccccc1)NC(=O)[C@H](Cc1ccccc1)N=[N+]=[N-])C(=O)[C@@]1(C)CO1		71.2	77.6	90.1	98.3	99.5	105	104	106	100	71	84.2	95.6	112	120	54.1	248	15.4	116	11.6	Activity [16]: 109%; Activity [17]: 90.7%; Activity [18]: 106%; Activity [19]: 105%; Activity [20]: 77.3%
